Results reported in PubChem BioAssay AID2060499 (Molecular Pharmacology Branch, DTP, NCI, 2025).

System: 777334-354-R2-J4-PDC tumor spheroids with HUVEC/MSC, viability
Assay: Anticancer human tumor 777334-354-R2-J4-PDC patient-derived pancreatic adenocarcinoma cell line growth inhibition [GQUAD]
Conditions: for IC50: curve of first compound; for viability, T/C: stronger effect = lower value
How it was run: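 Viability of tumor cells grown as complex spheroids with endothelial and stromal cells, exposed to drug combinations. Top concentration at or near clinical Cmax (else 10 microM), diluted in half-log increments.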

[1] = second compound 0.0316 µM, first compound 0.0316 µM
[2] = second compound 0.0316 µM, first compound 0.316 µM
[3] = second compound 0.1 µM, first compound 0.0316 µM
[4] = second compound 0.1 µM, first compound 0.316 µM
[5] = second compound 0.316 µM, first compound 0.0316 µM
[6] = second compound 0.316 µM, first compound 0.316 µM
[7] = second compound 1 µM, first compound 0.0316 µM
[8] = second compound 1 µM, first compound 0.316 µM
[9] = second compound 3.16 µM, first compound 0.0316 µM
[10] = second compound 3.16 µM, first compound 0.316 µM
[11] = second compound 10 µM, first compound 0.0316 µM
[12] = second compound 10 µM, first compound 0.316 µM
[13] = second compound 0.0316 µM, first compound 0.1 µM
[14] = second compound 0.0316 µM, first compound 1 µM
[15] = second compound 0.0316 µM, first compound 3.16 µM
[16] = second compound 0.0316 µM, first compound 10 µM
[17] = second compound 0.1 µM, first compound 0.1 µM
[18] = second compound 0.1 µM, first compound 1 µM
[19] = second compound 0.1 µM, first compound 3.16 µM
[20] = second compound 0.1 µM, first compound 10 µM
[21] = second compound 0.316 µM, first compound 0.1 µM
[22] = second compound 0.316 µM, first compound 1 µM
[23] = second compound 0.316 µM, first compound 3.16 µM
[24] = second compound 0.316 µM, first compound 10 µM
[25] = second compound 1 µM, first compound 0.1 µM
[26] = second compound 1 µM, first compound 1 µM
[27] = second compound 1 µM, first compound 3.16 µM
[28] = second compound 1 µM, first compound 10 µM
[29] = second compound 3.16 µM, first compound 0.1 µM
[30] = second compound 3.16 µM, first compound 1 µM
[31] = second compound 3.16 µM, first compound 3.16 µM
[32] = second compound 3.16 µM, first compound 10 µM
[33] = second compound 10 µM, first compound 0.1 µM
[34] = second compound 10 µM, first compound 1 µM
[35] = second compound 10 µM, first compound 3.16 µM
[36] = second compound 10 µM, first compound 10 µM
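Also: spheroids exposed to compounds for 7 days before readout.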

Cc1[nH]c2ccccc2c1CCNCc1ccc(/C=C/C(=O)NO)cc1 + CN(C)c1ccc(Nc2c3ccc(NC(=O)CCN4CCCC4)cc3nc3cc(NC(=O)CCN4CCCC4)ccc23)cc1
IC50 (second compound 0.0316 µM): 0.202 µM
IC50 (second compound 0.1 µM): 0.185 µM
IC50 (second compound 0.316 µM): 0.22 µM
IC50 (second compound 1 µM): 0.214 µM
IC50 (second compound 3.16 µM): 0.175 µM
IC50 (second compound 10 µM): 0.104 µM
viability, T/C (second compound 0.0316 µM, first compound 0.000999 µM): 104%
viability, T/C (second compound 0.0316 µM, first compound 0.00316 µM): 83.1%
viability, T/C (second compound 0.0316 µM, first compound 0.00999 µM): 97.8%
viability, T/C [1]: 90.5%
viability, T/C (second compound 0.0316 µM, first compound 0.0999 µM): 75.8%
viability, T/C [2]: 33.4%
viability, T/C (second compound 0.1 µM, first compound 0.000999 µM): 108%
viability, T/C (second compound 0.1 µM, first compound 0.00316 µM): 84.8%
viability, T/C (second compound 0.1 µM, first compound 0.00999 µM): 103%
viability, T/C [3]: 86.2%
viability, T/C (second compound 0.1 µM, first compound 0.0999 µM): 73.2%
viability, T/C [4]: 30.8%
viability, T/C (second compound 0.316 µM, first compound 0.000999 µM): 92.3%
viability, T/C (second compound 0.316 µM, first compound 0.00316 µM): 88.4%
viability, T/C (second compound 0.316 µM, first compound 0.00999 µM): 99.5%
viability, T/C [5]: 88.9%
viability, T/C (second compound 0.316 µM, first compound 0.0999 µM): 79.6%
viability, T/C [6]: 36.4%
viability, T/C (second compound 1 µM, first compound 0.000999 µM): 84.8%
viability, T/C (second compound 1 µM, first compound 0.00316 µM): 86.9%
viability, T/C (second compound 1 µM, first compound 0.00999 µM): 88.3%
viability, T/C [7]: 79%
viability, T/C (second compound 1 µM, first compound 0.0999 µM): 71.9%
viability, T/C [8]: 38.9%
viability, T/C (second compound 3.16 µM, first compound 0.000999 µM): 90.6%
viability, T/C (second compound 3.16 µM, first compound 0.00316 µM): 86.9%
viability, T/C (second compound 3.16 µM, first compound 0.00999 µM): 89%
viability, T/C [9]: 79.5%
viability, T/C (second compound 3.16 µM, first compound 0.0999 µM): 66.1%
viability, T/C [10]: 33.5%
viability, T/C (second compound 10 µM, first compound 0.000999 µM): 77%
viability, T/C (second compound 10 µM, first compound 0.00316 µM): 80.1%
viability, T/C (second compound 10 µM, first compound 0.00999 µM): 80.6%
viability, T/C [11]: 70.4%
viability, T/C (second compound 10 µM, first compound 0.0999 µM): 51.2%
viability, T/C [12]: 26.4%

O=C(c1cc(Cc2n[nH]c(=O)c3ccccc23)ccc1F)N1CCN(C(=O)C2CC2)CC1 + CN(C)c1ccc(Nc2c3ccc(NC(=O)CCN4CCCC4)cc3nc3cc(NC(=O)CCN4CCCC4)ccc23)cc1
IC50 (second compound 0.0316 µM): > 10 µM
IC50 (second compound 0.1 µM): > 10 µM
IC50 (second compound 0.316 µM): > 10 µM
IC50 (second compound 1 µM): > 10 µM
IC50 (second compound 3.16 µM): > 10 µM
IC50 (second compound 10 µM): > 10 µM
viability, T/C [1]: 97.1%
viability, T/C [13]: 104%
viability, T/C [2]: 104%
viability, T/C [14]: 86%
viability, T/C [15]: 84%
viability, T/C [16]: 74.3%
viability, T/C [3]: 88%
viability, T/C [17]: 82.6%
viability, T/C [4]: 93.5%
viability, T/C [18]: 92.1%
viability, T/C [19]: 88.5%
viability, T/C [20]: 72.5%
viability, T/C [5]: 80.6%
viability, T/C [21]: 94.9%
viability, T/C [6]: 97.2%
viability, T/C [22]: 81%
viability, T/C [23]: 94.1%
viability, T/C [24]: 66.7%
viability, T/C [7]: 84.9%
viability, T/C [25]: 89.8%
viability, T/C [8]: 86.7%
viability, T/C [26]: 86.2%
viability, T/C [27]: 80.4%
viability, T/C [28]: 65.4%
viability, T/C [9]: 79.7%
viability, T/C [29]: 81.7%
viability, T/C [10]: 68.3%
viability, T/C [30]: 76.2%
viability, T/C [31]: 82.6%
viability, T/C [32]: 69.1%
viability, T/C [11]: 64.7%
viability, T/C [33]: 76.7%
viability, T/C [12]: 76.4%
viability, T/C [34]: 81%
viability, T/C [35]: 71%
viability, T/C [36]: 66.9%

O=c1[nH]cc(F)c(=O)[nH]1 + CN(C)c1ccc(Nc2c3ccc(NC(=O)CCN4CCCC4)cc3nc3cc(NC(=O)CCN4CCCC4)ccc23)cc1
IC50 (second compound 0.0316 µM): > 10 µM
IC50 (second compound 0.1 µM): > 10 µM
IC50 (second compound 0.316 µM): > 10 µM
IC50 (second compound 1 µM): > 10 µM
IC50 (second compound 3.16 µM): > 10 µM
IC50 (second compound 10 µM): 8.21 µM
viability, T/C [1]: 91.7%
viability, T/C [13]: 92%
viability, T/C [2]: 99.9%
viability, T/C [14]: 84.2%
viability, T/C [15]: 66.7%
viability, T/C [16]: 55.3%
viability, T/C [3]: 96.8%
viability, T/C [17]: 96.8%
viability, T/C [4]: 92.3%
viability, T/C [18]: 90.7%
viability, T/C [19]: 80.3%
viability, T/C [20]: 60%
viability, T/C [5]: 92.6%
viability, T/C [21]: 91%
viability, T/C [6]: 96.3%
viability, T/C [22]: 87.1%
viability, T/C [23]: 72.4%
viability, T/C [24]: 54.7%
viability, T/C [7]: 99.3%
viability, T/C [25]: 88.5%
viability, T/C [8]: 82.8%
viability, T/C [26]: 70.6%
viability, T/C [27]: 65.9%
viability, T/C [28]: 55%
viability, T/C [9]: 93.2%
viability, T/C [29]: 81.6%
viability, T/C [10]: 79.2%
viability, T/C [30]: 77.8%
viability, T/C [31]: 71.1%
viability, T/C [32]: 54.2%
viability, T/C [11]: 76.6%
viability, T/C [33]: 79.1%
viability, T/C [12]: 76.8%
viability, T/C [34]: 71.4%
viability, T/C [35]: 60.9%
viability, T/C [36]: 47.7%
